In patent publication US10004701B2, “Methods and compositions for treating infection” (UNIVERSITY OF ROCHESTER, priority 2012, dated 2018):
Structures can show the parent of a compound that is named as a salt. Where two headings read alike, the source gives them in different places.

How the values were obtained:
Assay in all cases: AK assay 384-well format, Prestwick library screening
[1] = test system: S. aureus strain USA300-0114; format: cell-based, Staphylococcus aureus; conditions: 50 μM final drug concentration; for fold induction at 50 µM: Staphylococcus aureus, USA300, 3 h
[2] = test system: P. aeruginosa; format: cell-based, Pseudomonas aeruginosa; conditions: 50 μM final drug concentration; for fold induction at 50 µM: Pseudomonas aeruginosa, 3 h
[3] = test system: K. pneumoniae; format: cell-based, Klebsiella pneumoniae; conditions: 50 μM final drug concentration; for fold induction at 50 µM: Klebsiella pneumoniae, 3 h
[4] = test system: E. cloacae; format: cell-based, Enterobacter cloacae; conditions: 50 μM final drug concentration; for fold induction at 50 µM: Enterobacter cloacae, 3 h
[5] = test system: A. baumannii strain 98-37-09; format: cell-based, Acinetobacter baumannii; conditions: 50 μM final drug concentration; for fold induction at 50 µM: Acinetobacter baumannii, 983709, 3 h
[6] = test system: E. coli; format: cell-based, Escherichia coli; conditions: 50 μM final drug concentration; for fold induction at 50 µM: Escherichia coli, 3 h
[7] = test system: E. faecium; format: cell-based, Enterococcus faecium; conditions: 50 μM final drug concentration; for fold induction at 50 µM: Enterococcus faecium, 3 h
[8] = planktonic S. aureus, 384-well, cutoff for positive-scoring molecules 3-fold increase
[9] = planktonic P. aeruginosa, 384-well, cutoff for positive-scoring molecules 3-fold increase
[10] = planktonic K. pneumoniae, 384-well, cutoff for positive-scoring molecules 3-fold increase
[11] = planktonic E. cloacae, 384-well, cutoff for positive-scoring molecules 3-fold increase
[12] = planktonic A. baumannii, 384-well, cutoff for positive-scoring molecules 3-fold increase
[13] = planktonic E. coli, 384-well, cutoff for positive-scoring molecules 3-fold increase
[14] = planktonic E. faecium, 384-well, cutoff for positive-scoring molecules 3-fold increase
[15] = planktonic S. aureus, cutoff for positive-scoring molecules 3-fold increase, read-out: AK-based Prestwick Library Screening Results, S. aureus (increase in extracellular AK activity)
[16] = planktonic P. aeruginosa, cutoff for positive-scoring molecules 3-fold increase, read-out: AK-based Prestwick Library Screening Results, P. aeruginosa (increase in extracellular AK activity)
[17] = planktonic K. pneumoniae, cutoff for positive-scoring molecules 3-fold increase, read-out: AK-based Prestwick Library Screening Results, K. pneumoniae (increase in extracellular AK activity)
[18] = planktonic E. cloacae, cutoff for positive-scoring molecules 3-fold increase, read-out: AK-based Prestwick Library Screening Results, E. cloacae (increase in extracellular AK activity)
[19] = planktonic A. baumannii, cutoff for positive-scoring molecules 3-fold increase, read-out: AK-based Prestwick Library Screening Results, A. baumannii (increase in extracellular AK activity)
[20] = planktonic E. coli, cutoff for positive-scoring molecules 3-fold increase, read-out: AK-based Prestwick Library Screening Results, E. coli (increase in extracellular AK activity)
[21] = planktonic E. faecium, cutoff for positive-scoring molecules 3-fold increase, read-out: AK-based Prestwick Library Screening Results, E. faecium (increase in extracellular AK activity)

COc1ccc2c(OC)c3ccoc3nc2c1OC [Skimmianine]
fold induction at 50 µM ([1]; planktonic, […], read-out: AK-based Prestwick Library Screening Results, S. aureus (fold increase in extracellular AK activity)): 0.6
fold induction at 50 µM ([2]; planktonic, […], read-out: AK-based Prestwick Library Screening Results, P. aeruginosa (fold increase in extracellular AK activity)): 0.6
fold induction at 50 µM ([3]; planktonic, […], read-out: AK-based Prestwick Library Screening Results, K. pneumoniae (fold increase in extracellular AK activity)): 0.5
fold induction at 50 µM ([4]; planktonic, […], read-out: AK-based Prestwick Library Screening Results, E. cloacae (fold increase in extracellular AK activity)): 1.1
fold induction at 50 µM ([5]; planktonic, […], read-out: AK-based Prestwick Library Screening Results, A. baumannii (fold increase in extracellular AK activity)): 0.5
fold induction at 50 µM ([6]; planktonic, […], read-out: AK-based Prestwick Library Screening Results, E. coli (fold increase in extracellular AK activity)): 0.6
fold induction at 50 µM ([7]; planktonic, […], read-out: AK-based Prestwick Library Screening Results, E. faecium (fold increase in extracellular AK activity)): 0.6

CC1Cc2ccccc2N1NC(=O)c1ccc(Cl)c(S(N)(=O)=O)c1 (stereo not drawn) [Indapamide]
fold induction at 50 µM ([1]; planktonic S. aureus, 384-well, cutoff for positive-scoring molecules 3-fold increase, read-out: AK-based Prestwick Library Screening Results: S. aureus (increase in extracellular AK activity)): 1
fold induction at 50 µM ([2]; planktonic P. aeruginosa, 384-well, cutoff for positive-scoring molecules 3-fold increase, read-out: AK-based Prestwick Library Screening Results: P. aeruginosa (increase in extracellular AK activity)): 1.1
fold induction at 50 µM ([3]; planktonic K. pneumoniae, 384-well, cutoff for positive-scoring molecules 3-fold increase, read-out: AK-based Prestwick Library Screening Results: K. pneumoniae (increase in extracellular AK activity)): 1.1
fold induction at 50 µM ([4]; planktonic E. cloacae, 384-well, cutoff for positive-scoring molecules 3-fold increase, read-out: AK-based Prestwick Library Screening Results: E. cloacae (increase in extracellular AK activity)): 1.7
fold induction at 50 µM ([5]; planktonic A. baumannii, 384-well, cutoff for positive-scoring molecules 3-fold increase, read-out: AK-based Prestwick Library Screening Results: A. baumannii (increase in extracellular AK activity)): 1
fold induction at 50 µM ([6]; planktonic E. coli, 384-well, cutoff for positive-scoring molecules 3-fold increase, read-out: AK-based Prestwick Library Screening Results: E. coli (increase in extracellular AK activity)): 1.1
fold induction at 50 µM ([7]; planktonic E. faecium, 384-well, cutoff for positive-scoring molecules 3-fold increase, read-out: AK-based Prestwick Library Screening Results: E. faecium (increase in extracellular AK activity)): 1.1

Clofilium tosylate
AK-based Prestwick Library Screening Results: S. aureus (increase in extracellular AK activity) [1, 8]: 1.2
AK-based Prestwick Library Screening Results: P. aeruginosa (increase in extracellular AK activity) [2, 9]: 1.3
AK-based Prestwick Library Screening Results: K. pneumoniae (increase in extracellular AK activity) [3, 10]: 1.5
AK-based Prestwick Library Screening Results: E. cloacae (increase in extracellular AK activity) [4, 11]: 1.2
AK-based Prestwick Library Screening Results: A. baumannii (increase in extracellular AK activity) [5, 12]: 1.6
AK-based Prestwick Library Screening Results: E. coli (increase in extracellular AK activity) [6, 13]: 1.5
AK-based Prestwick Library Screening Results: E. faecium (increase in extracellular AK activity) [7, 14]: 1.4

CC(=O)OCC(=O)NCCCOc1cccc(CN2CCCCC2)c1 [Roxatidine Acetate HCl]
fold induction at 50 µM [1, 15]: 0.6
fold induction at 50 µM [2, 16]: 0.7
fold induction at 50 µM [3, 17]: 0.7
fold induction at 50 µM [4, 18]: 0.9
fold induction at 50 µM [5, 19]: 0.8
fold induction at 50 µM [6, 20]: 0.8
fold induction at 50 µM [7, 21]: 1

OC(CCCN1CCCCC1)(c1ccccc1)c1ccccc1 [Diphenidol hydrochloride]
fold induction at 50 µM ([1]; 384-well format, cutoff for positive-scoring molecules 3-fold increase, read-out: AK-based Prestwick Library Screening Results, S. aureus (increase in extracellular AK activity)): 0.7
fold induction at 50 µM ([2]; 384-well format, cutoff for positive-scoring molecules 3-fold increase, read-out: AK-based Prestwick Library Screening Results, P. aeruginosa (increase in extracellular AK activity)): 0.8
fold induction at 50 µM ([3]; 384-well format, cutoff for positive-scoring molecules 3-fold increase, read-out: AK-based Prestwick Library Screening Results, K. pneumoniae (increase in extracellular AK activity)): 0.7
fold induction at 50 µM ([4]; 384-well format, cutoff for positive-scoring molecules 3-fold increase, read-out: AK-based Prestwick Library Screening Results, E. cloacae (increase in extracellular AK activity)): 0.8
fold induction at 50 µM ([5]; 384-well format, cutoff for positive-scoring molecules 3-fold increase, read-out: AK-based Prestwick Library Screening Results, A. baumannii (increase in extracellular AK activity)): 0.7
fold induction at 50 µM ([6]; 384-well format, cutoff for positive-scoring molecules 3-fold increase, read-out: AK-based Prestwick Library Screening Results, E. coli (increase in extracellular AK activity)): 0.8
fold induction at 50 µM ([7]; 384-well format, cutoff for positive-scoring molecules 3-fold increase, read-out: AK-based Prestwick Library Screening Results, E. faecium (increase in extracellular AK activity)): 1

Ifenprodil tartrate
AK-based Prestwick Library Screening Results: S. aureus (increase in extracellular AK activity) [1, 8]: 1.1
AK-based Prestwick Library Screening Results: P. aeruginosa (increase in extracellular AK activity) [2, 9]: 1.2
AK-based Prestwick Library Screening Results: K. pneumoniae (increase in extracellular AK activity) [3, 10]: 1.3
AK-based Prestwick Library Screening Results: E. cloacae (increase in extracellular AK activity) [4, 11]: 1.3
AK-based Prestwick Library Screening Results: A. baumannii (increase in extracellular AK activity) [5, 12]: 1.4
AK-based Prestwick Library Screening Results: E. coli (increase in extracellular AK activity) [6, 13]: 1.2
AK-based Prestwick Library Screening Results: E. faecium (increase in extracellular AK activity) [7, 14]: 1.0

CC1(C)OC(=O)NC1=O [Dimethadione]
fold induction at 50 µM ([1]; planktonic, cutoff for positive-scoring molecules 3-fold increase, read-out: AK-based Prestwick Library Screening Results, S. aureus (fold increase in extracellular AK activity)): 0.7
fold induction at 50 µM ([2]; planktonic, cutoff for positive-scoring molecules 3-fold increase, read-out: AK-based Prestwick Library Screening Results, P. aeruginosa (fold increase in extracellular AK activity)): 0.8
fold induction at 50 µM ([3]; planktonic, cutoff for positive-scoring molecules 3-fold increase, read-out: AK-based Prestwick Library Screening Results, K. pneumoniae (fold increase in extracellular AK activity)): 0.8
fold induction at 50 µM ([4]; planktonic, cutoff for positive-scoring molecules 3-fold increase, read-out: AK-based Prestwick Library Screening Results, E. cloacae (fold increase in extracellular AK activity)): 1
fold induction at 50 µM ([5]; planktonic, cutoff for positive-scoring molecules 3-fold increase, read-out: AK-based Prestwick Library Screening Results, A. baumannii (fold increase in extracellular AK activity)): 0.8
fold induction at 50 µM ([6]; planktonic, cutoff for positive-scoring molecules 3-fold increase, read-out: AK-based Prestwick Library Screening Results, E. coli (fold increase in extracellular AK activity)): 0.9
fold induction at 50 µM ([7]; planktonic, cutoff for positive-scoring molecules 3-fold increase, read-out: AK-based Prestwick Library Screening Results, E. faecium (fold increase in extracellular AK activity)): 0.9

O=C(O)c1ccccc1C(=O)Nc1ccc(S(=O)(=O)Nc2nccs2)cc1 [Phthalylsulfathiazole]
fold induction at 50 µM ([1]; cutoff for positive-scoring molecules 3-fold increase, read-out: AK-based Prestwick Library Screening Results, S. aureus (fold increase in extracellular AK activity)): 1.4
fold induction at 50 µM ([2]; cutoff for positive-scoring molecules 3-fold increase, read-out: AK-based Prestwick Library Screening Results, P. aeruginosa (fold increase in extracellular AK activity)): 1
fold induction at 50 µM ([3]; cutoff for positive-scoring molecules 3-fold increase, read-out: AK-based Prestwick Library Screening Results, K. pneumoniae (fold increase in extracellular AK activity)): 1
fold induction at 50 µM ([4]; cutoff for positive-scoring molecules 3-fold increase, read-out: AK-based Prestwick Library Screening Results, E. cloacae (fold increase in extracellular AK activity)): 1.2
fold induction at 50 µM ([5]; cutoff for positive-scoring molecules 3-fold increase, read-out: AK-based Prestwick Library Screening Results, A. baumannii (fold increase in extracellular AK activity)): 1.4
fold induction at 50 µM ([6]; cutoff for positive-scoring molecules 3-fold increase, read-out: AK-based Prestwick Library Screening Results, E. coli (fold increase in extracellular AK activity)): 1.4
fold induction at 50 µM ([7]; cutoff for positive-scoring molecules 3-fold increase, read-out: AK-based Prestwick Library Screening Results, E. faecium (fold increase in extracellular AK activity)): 1

CN(C)CCC=C1c2ccccc2C=Cc2ccccc21 [Cyclobenzaprine hydrochloride]
fold induction at 50 µM [1, 15]: 1
fold induction at 50 µM [2, 16]: 1.1
fold induction at 50 µM [3, 17]: 0.9
fold induction at 50 µM [4, 18]: 1.2
fold induction at 50 µM [5, 19]: 1.2
fold induction at 50 µM [6, 20]: 1.3
fold induction at 50 µM [7, 21]: 1
